Key:
[1] = tested on: HT-29; assay: Cytotoxicity against human HT-29 cells after 72 hrs by MTT assay; format: functional, cell-based; conditions: HT-29, 72 h
[2] = tested on: HCT-116; assay: Cytotoxicity against human HCT116 cells after 72 hrs by MTT assay; format: functional, cell-based; conditions: HCT-116, 72 h

## CC(C)Cc1ccc(C(C)C(=O)OC(C)CC(=O)OC(C)CC(=O)OC(C)CC(=O)OC(C)CC(=O)OC(C)CC(=O)OC(C)CC(=O)O)cc1 (stereo unspecified)
[1]
  IC50: 77 µM
[2]
  IC50: 53 µM

## CC(C)Cc1ccc(C(C)C(=O)OC(C)CC(=O)OC(C)CC(=O)OC(C)CC(=O)OC(C)CC(=O)O)cc1 (stereo unspecified)
[1]
  IC50: 37 µM
[2]
  IC50: 31 µM

## CC(C)Cc1ccc(C(C)C(=O)O)cc1 (stereo unspecified) [IBUPROFEN]
[1]
  IC50: 552 µM
[2]
  IC50: 448 µM
